# Measurements published in patent US12527830B2, “Method for treating and preventing ulcerative colitis and method for DAI reduction” (BEIJING WEHAND-BIO PHARMACEUTICAL CO., LTD, priority 2022, dated 2026).
# System: UC model mice
# Test: 3% DSS-induced ulcerative colitis model in mice: colon length, body weight, Disease Activity Index (DAI)
# Format: in vivo
# Settings: positive drug group, 500 mg/kg/d by gavage, 3% DSS mice
# Experimental: Mice aged 6-8 weeks were adaptively kept in an animal house for 3 days. After weighing, they were randomly divided into 8 groups (counted as Day 0), with 5-6 mice in each group. Experimental grouping was as follows: group 1, normal control; group 2, model; group 3, positive control; and groups 4-8, SZ-A with different administration doses, respectively. 3% DSS was formulated as follows: 3 g of DSS (Dextran Sulfate Sodium Salt) was dissolved in 100 mL of sterile water; The mulberry twig extract as prepared in Preparative Example 1 was formulated at different concentrations and dissolved in 1% CMC solution; Drug as positive control: Sulfasalazine Enteric-Coated Tablets (NMPN H31020557). On the day when grouping was done, the mice in group 8, SZ-A-5 (pretreatment) group, were administered with a mulberry twig extract by oral gavage (see the following table for dosages) once a day. All groups are normally available to food and water. […] After 5 days from the start of modelling, the access to 3% DSS was stopped, and all groups had normal drinking water instead, with the administration done normally. The mice were administered continuously and observed for 10 days, and euthanized by cervical dislocation. The colons of the mice were removed by dissection, and the lengths of the colons were measured and photographed. During the administration, the weights of the mice in each group were measured. During the modelling and administration, stool texture and blood in stool of the mice were monitored daily, and Disease Activity Index, DAI, for the mice was scored according to Table 2 below. [table] [table] • Note: DAI=Score for Weight Loss+Score for Stool Texture+Score for Fecal Occult Blood; Normal Stool: Shaped Stool; Mushy Stool: Pasty, Semi-Shaped Stool without Adhering to Anus; Liquid Stool: Thin, Watery Stool that may Adhere to Anus. Disease Activity Index (DAI) scores for mice were compared using the mulberry twig extracts in each preparative example with reference to the experimental steps in sections 1.1-1.3 above. […]
structure (smiles),measurement,setting,value
"O=C(O)c1cc(N=Nc2ccc(S(=O)(=O)Nc3ccccn3)cc2)ccc1O [positive drug, 5-[p-(2-pyridylsulfamoyl)phenylazo]salicylic acid]",inhibition of colonic atrophy (colon length) compared with model group,FIG. 1-2,significantly inhibited colonic atrophy
same,inhibition of weight loss compared with model group,FIG. 3,inhibit weight loss
same,"reduction of Disease Activity Index, DAI, compared with model group",FIG. 4,reduce Disease Activity Index
